Results taken from the NIST ThermoML archive (doi:10.1016/j.fluid.2017.06.022).

Test: xn = mol fraction of the nth substance listed
Details: Liquid, Bellows volumetry

C=CC [propene] + Cc1ccccc1
Details | mass density [kg/m3]
295.7 K, 700 kPa, x1 = 0.53 | 679.7
295.7 K, 1000 kPa, x1 = 0.53 | 680.5
295.7 K, 1400 kPa, x1 = 0.53 | 681.2
295.7 K, 1900 kPa, x1 = 0.53 | 681.6
295.7 K, 2300 kPa, x1 = 0.53 | 682.4
295.7 K, 2900 kPa, x1 = 0.53 | 683.2
295.7 K, 3400 kPa, x1 = 0.53 | 684
295.7 K, 3600 kPa, x1 = 0.53 | 684
295.7 K, 5200 kPa, x1 = 0.53 | 685.5
295.7 K, 7300 kPa, x1 = 0.53 | 688.3
295.7 K, 8600 kPa, x1 = 0.53 | 689.5
295.7 K, 10700 kPa, x1 = 0.53 | 691.9
295.7 K, 13500 kPa, x1 = 0.53 | 694.7
295.7 K, 23900 kPa, x1 = 0.53 | 704.6
295.7 K, 31000 kPa, x1 = 0.53 | 710.9
295.7 K, 37900 kPa, x1 = 0.53 | 716
295.7 K, 44100 kPa, x1 = 0.53 | 720.7
295.7 K, 51800 kPa, x1 = 0.53 | 726.4
295.7 K, 58300 kPa, x1 = 0.53 | 730.4
295.7 K, 63200 kPa, x1 = 0.53 | 733.6
295.7 K, 67000 kPa, x1 = 0.53 | 735.9
295.9 K, 200 kPa, x1 = 0.1159 | 797.6
295.9 K, 300 kPa, x1 = 0.1159 | 798.9
295.9 K, 600 kPa, x1 = 0.1159 | 799.5
295.9 K, 1300 kPa, x1 = 0.1159 | 800.1
295.9 K, 2000 kPa, x1 = 0.1159 | 800.7
295.9 K, 3500 kPa, x1 = 0.1159 | 802
295.9 K, 7200 kPa, x1 = 0.1159 | 805.2
295.9 K, 10200 kPa, x1 = 0.1159 | 807.7
295.9 K, 13500 kPa, x1 = 0.1159 | 810.3
296.4 K, 1000 kPa, x1 = 0.7612 | 606.8
296.4 K, 1400 kPa, x1 = 0.7612 | 610
296.4 K, 2200 kPa, x1 = 0.7612 | 611.2
296.4 K, 3300 kPa, x1 = 0.7612 | 613.2
296.4 K, 5200 kPa, x1 = 0.7612 | 616.4
296.4 K, 6900 kPa, x1 = 0.7612 | 619.3
296.4 K, 10300 kPa, x1 = 0.7612 | 624.6
296.4 K, 10400 kPa, x1 = 0.7612 | 624.6
296.4 K, 13800 kPa, x1 = 0.7612 | 629.7
296.4 K, 17200 kPa, x1 = 0.7612 | 634.4
296.4 K, 24100 kPa, x1 = 0.7612 | 643.5
296.4 K, 31100 kPa, x1 = 0.7612 | 652.1
296.4 K, 37700 kPa, x1 = 0.7612 | 659.4
296.4 K, 44500 kPa, x1 = 0.7612 | 666
296.4 K, 51400 kPa, x1 = 0.7612 | 672.7
296.4 K, 57800 kPa, x1 = 0.7612 | 678
296.4 K, 62900 kPa, x1 = 0.7612 | 682
296.4 K, 66900 kPa, x1 = 0.7612 | 685
324.6 K, 1700 kPa, x1 = 0.7612 | 572
324.6 K, 1900 kPa, x1 = 0.7612 | 572.3
324.6 K, 2600 kPa, x1 = 0.7612 | 574.4
324.6 K, 3600 kPa, x1 = 0.7612 | 576.9
324.6 K, 5300 kPa, x1 = 0.7612 | 580.5
324.6 K, 7000 kPa, x1 = 0.7612 | 584.1
324.6 K, 10500 kPa, x1 = 0.7612 | 591.1
324.6 K, 17400 kPa, x1 = 0.7612 | 603.7
324.6 K, 24200 kPa, x1 = 0.7612 | 614.4
324.6 K, 30900 kPa, x1 = 0.7612 | 623.8
324.6 K, 37800 kPa, x1 = 0.7612 | 632.7
324.6 K, 44500 kPa, x1 = 0.7612 | 640.5
324.6 K, 51500 kPa, x1 = 0.7612 | 648.4
324.6 K, 58400 kPa, x1 = 0.7612 | 655.7
324.6 K, 63100 kPa, x1 = 0.7612 | 660.3
324.6 K, 67000 kPa, x1 = 0.7612 | 664.1
324.8 K, 300 kPa, x1 = 0.1159 | 771
324.8 K, 600 kPa, x1 = 0.1159 | 771.6
324.8 K, 1100 kPa, x1 = 0.1159 | 772.2
324.8 K, 1600 kPa, x1 = 0.1159 | 772.8
324.8 K, 2000 kPa, x1 = 0.1159 | 773.4
324.8 K, 2500 kPa, x1 = 0.1159 | 774
324.8 K, 3300 kPa, x1 = 0.1159 | 774.6
324.8 K, 5000 kPa, x1 = 0.1159 | 776.3
324.8 K, 7000 kPa, x1 = 0.1159 | 778.7
324.8 K, 10200 kPa, x1 = 0.1159 | 781.7
324.8 K, 13500 kPa, x1 = 0.1159 | 784.7
324.8 K, 16900 kPa, x1 = 0.1159 | 787.7
324.8 K, 20400 kPa, x1 = 0.1159 | 791.4
324.8 K, 23600 kPa, x1 = 0.1159 | 793.9
324.8 K, 31300 kPa, x1 = 0.1159 | 800.7
324.8 K, 37800 kPa, x1 = 0.1159 | 805.8
374.3 K, 3700 kPa, x1 = 0.7612 | 493.5
374.3 K, 3800 kPa, x1 = 0.7612 | 494.1
374.3 K, 5300 kPa, x1 = 0.7612 | 503.1
374.3 K, 6900 kPa, x1 = 0.7612 | 511.6
374.3 K, 8400 kPa, x1 = 0.7612 | 518.3
374.3 K, 10400 kPa, x1 = 0.7612 | 526
374.3 K, 17200 kPa, x1 = 0.7612 | 547.4
374.3 K, 23900 kPa, x1 = 0.7612 | 562.2
374.3 K, 30800 kPa, x1 = 0.7612 | 574.7
374.3 K, 37700 kPa, x1 = 0.7612 | 586.8
374.3 K, 44200 kPa, x1 = 0.7612 | 596.6
375.3 K, 700 kPa, x1 = 0.1159 | 723.9
375.3 K, 900 kPa, x1 = 0.1159 | 724.4
375.3 K, 1400 kPa, x1 = 0.1159 | 725.5
375.3 K, 2000 kPa, x1 = 0.1159 | 726.5
375.3 K, 2500 kPa, x1 = 0.1159 | 727.6
375.3 K, 3400 kPa, x1 = 0.1159 | 728.6
375.3 K, 5200 kPa, x1 = 0.1159 | 731.2
375.3 K, 6900 kPa, x1 = 0.1159 | 733.8
375.3 K, 10100 kPa, x1 = 0.1159 | 737.6
375.3 K, 17200 kPa, x1 = 0.1159 | 746.2
375.3 K, 23700 kPa, x1 = 0.1159 | 753.4
375.3 K, 30800 kPa, x1 = 0.1159 | 760.7
375.3 K, 37600 kPa, x1 = 0.1159 | 767
375.4 K, 2600 kPa, x1 = 0.53 | 588.6
375.4 K, 2900 kPa, x1 = 0.53 | 589.8
375.4 K, 4300 kPa, x1 = 0.53 | 593.6
375.4 K, 6900 kPa, x1 = 0.53 | 600.6
375.4 K, 9200 kPa, x1 = 0.53 | 607.4
375.4 K, 10500 kPa, x1 = 0.53 | 609.9
375.4 K, 17900 kPa, x1 = 0.53 | 622.3
375.4 K, 23800 kPa, x1 = 0.53 | 632
375.4 K, 24100 kPa, x1 = 0.53 | 631.5
375.4 K, 30900 kPa, x1 = 0.53 | 641.7
375.4 K, 37900 kPa, x1 = 0.53 | 651.5
375.4 K, 44800 kPa, x1 = 0.53 | 659.4
375.4 K, 51200 kPa, x1 = 0.53 | 666.4
375.4 K, 58800 kPa, x1 = 0.53 | 674.3
375.4 K, 63200 kPa, x1 = 0.53 | 678.1
375.4 K, 67400 kPa, x1 = 0.53 | 682
